Experiments:
p53 = p53 activation (Western blot of p53 and p21) in young IMR90 cells; assay type: cell-based, human; conditions: 20 μM for 48 hours
Text: After the treatment, proteins were extracted from the cells to carry out Western blotted.

HIF-2α = HIF-2α protein (Western blot) and mRNA expression in IMR90 cells; assay type: cell-based, human
Text: As a result, it was observed that the HIF-2α protein decreased in the nutlin 3b-treated group and the BI-D1870-treated group (upper diagram and lower diagram in FIG. 22).
An oncogenic Ras was introduced into young cells (within 1 month of continuous culture) of IMR90 cells to induce senescent cells (OIS). […] It is known that ubiquitination is induced by phosphorylation in the vicinity of a ubiquitination site (Hagai et al., 2012). The consensus sequences (K/R-K/R-x-x-S/T) for phosphorylation by Chk1 located at the N-terminus of HIF-2α were conserved, and these were named Motif1 (including Ser12 residues) and Motif2 (including Ser19 residues) (FIG. 40, SEQ ID NOs: 77 to 81).

senescent cells = experiment: Transcriptome / microarray / mRNA analysis of nutlin 3b-treated senescent cells; assay type: cell-based, human
Protocol: The latter information consists of 12,655 ChIP datasets from 903 antigens (transcription factors and epigenetic regulators).
A microarray dataset on nutlin 3b-treated senescent cells was analyzed for 202 genes (GO:0042981) classified as regulation of the apoptotic process.
In the Fox family, FoxO protein is deeply involved in the senescence process.

BIM gene = BIM gene expression in Ras-induced senescent IMR90 cells; assay type: cell-based, human; conditions: senescent (OIS) IMR90 cells; 48 hours
Protocol: An oncogenic Ras was introduced into young cells (within 1 month of continuous culture) of IMR90 cells to induce senescent cells (OIS).
An oncogenic Ras was introduced into young cells (within 1 month of continuous culture) of IMR90 cells to induce senescent cells (OIS). The senescent cells were transfected with an HIF-2α-specific siRNA (SEQ ID NO: 9) to knock down HIF-2α. After that, the expression of the BIM gene, which is an apoptosis-inducing gene, was analyzed (FIG. 26).

PGAM-Chk1 binding = target: T1, PGAM-Chk1 binding (Homo sapiens, UniProt O14757+P18669); experiment: PGAM-Chk1 binding by anti-Chk1 immunoprecipitation and anti-PGAM Western blotting in Ras-induced senescent IMR90 cells; assay type: cell-based; conditions: 20 μM or 40 μM for 48 hours, then MG132 6 hours
T1 construct: endogenous in cells; host or cells: IMR90 human primary fibroblasts made senescent by retroviral oncogenic Ras
T1 sequence (P18669 2-254 limits assumed): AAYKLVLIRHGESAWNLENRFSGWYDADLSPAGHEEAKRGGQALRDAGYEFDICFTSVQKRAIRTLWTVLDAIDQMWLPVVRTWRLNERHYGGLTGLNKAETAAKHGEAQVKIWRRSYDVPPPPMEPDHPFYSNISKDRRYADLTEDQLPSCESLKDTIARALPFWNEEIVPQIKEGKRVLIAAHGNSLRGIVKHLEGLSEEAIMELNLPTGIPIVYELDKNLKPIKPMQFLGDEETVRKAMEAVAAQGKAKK
T1 sequence (O14757 1-476): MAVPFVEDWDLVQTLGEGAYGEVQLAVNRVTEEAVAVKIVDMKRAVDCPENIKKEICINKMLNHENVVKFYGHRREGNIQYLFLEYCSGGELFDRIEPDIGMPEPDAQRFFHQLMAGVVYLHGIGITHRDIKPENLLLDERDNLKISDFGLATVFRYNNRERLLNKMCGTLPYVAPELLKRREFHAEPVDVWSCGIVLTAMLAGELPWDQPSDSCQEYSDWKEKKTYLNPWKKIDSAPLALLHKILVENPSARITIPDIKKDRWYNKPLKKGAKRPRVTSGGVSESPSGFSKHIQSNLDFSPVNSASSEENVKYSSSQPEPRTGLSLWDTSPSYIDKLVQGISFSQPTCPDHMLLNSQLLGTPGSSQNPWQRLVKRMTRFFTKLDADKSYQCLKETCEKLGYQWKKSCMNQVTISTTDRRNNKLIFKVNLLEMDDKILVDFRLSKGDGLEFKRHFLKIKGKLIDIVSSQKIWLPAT
Protocol: Human primary fibroblasts, IMR90 cells, were obtained from the JCRB Cell Bank. An oncogenic Ras mutation was retrovirally introduced into young cells (within 1 month of continuous culture) of the IMR90 cells to induce cellular senescence. […] After that, these cells were treated with MG132 for 6 hours, and cell lysates were prepared. The obtained cell lysates were immunoprecipitated with an anti-Chk1 antibody. The resulting immunoprecipitate was used for Western blotting with an anti-PGAM antibody to evaluate PGAM-Chk1 binding.
Next, in the same manner as above, IMR90 cells were used to prepare stress-induced senescent cells by introducing an oncogenic mutated Ras gene. The senescent cells were transfected with an RSK1 siRNA (SEQ ID NO: 7) or a control to knock down RSK1. The resulting cells were collected, and proteins were extracted. The resulting protein extract was immunoprecipitated with an anti-Chk1 antibody. The resulting immunoprecipitate was used for Western blotting with an anti-PGAM antibody to evaluate PGAM-Chk1 binding.

## COc1ccc(C2=N[C@H](c3ccc(Cl)cc3)[C@H](c3ccc(Cl)cc3)N2C(=O)N2CCNC(=O)C2)c(OC(C)C)c1 [nutlin 3b]
p53
  protein level of p21: almost unchanged
  protein level of p53: almost unchanged
HIF-2α; senescent (OIS) IMR90 cells
  HIF-2α protein expression: suppressed
  influence on HIF-2α mRNA: relatively small
HIF-2α; young and senescent cells, different concentrations for 96 hours
  HIF-2α protein: decreased
Senescent cells; nutlin 3b treatment
  expression of FOXM1, FOXF1, FOXC1, FOXL1, FOXL2, FOXD1, FOXB2, FOXI2, and FOXN1: downregulated
  expression of FOXO1, FOXP1, FOXH1, FOXF2, FOXO4, FOXO3, FOXJ3, FOXQ1, FOXK2, FOXN3, FOXO6, FOXK1, FOXP4, FOXN2, and FOXJ2: upregulated
  expression of FOXO1 and FOXP1: remarkably upregulated
Senescent cells; nutlin 3b-treated senescent cells
  Survivin protein: downregulated
Senescent cells; nutlin 3b-treated senescent cells, microarray
  downregulation of Survivin/BIRC5: about 30 fold
Senescent cells; senescent cells
  FoxM1 mRNA among FOX transcription family members: most dramatically downregulated
  mRNAs for FoxM1 transcription targets (CCNB1, B2, D1, PLK1, ASPM, CEP55): significantly affected
BIM gene
  expression of the apoptosis-inducing gene BIM: increased
PGAM-Chk1 binding
  PGAM-Chk1 binding (interaction): inhibit PGAM-Chk1 interaction to the same extent
